Assay results as given in ChEMBL document CHEMBL1201862, “PubChem BioAssay data set” (2004).
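All cell lines were grown in 96-well plates and treated with compound for 48 hours. Abbreviation: GI50, concentration required for 50% inhibition of growth.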 Calls of active or inactive are those of the source. No stated cut-off is given here; in the data, active = GI50 up to about 1.1 µM and inactive = higher.

Experiments:
Assay in all cases: NCI-60 cell line screen, 48 h
[1] = tested on: IGROV-1
[2] = tested on: HOP-62
[3] = tested on: MOLT-4
[4] = tested on: COLO 205
[5] = tested on: HL-60
[6] = tested on: SK-MEL-28
[7] = tested on: SK-OV-3
[8] = tested on: NCI-H226
[9] = tested on: NCI-H23
[10] = tested on: SF-539
[11] = tested on: KM12
[12] = tested on: SN12C
[13] = tested on: A498
[14] = tested on: HT-29
[15] = tested on: 786-0
[16] = tested on: TK-10
[17] = tested on: SNB-75
[18] = tested on: SNB-19
[19] = tested on: SW-620
[20] = tested on: RXF 393

Compound	GI50 [1]	GI50 [2]	GI50 [3]	GI50 [4]	GI50 [5]	GI50 [6]	GI50 [7]	GI50 [8]	GI50 [9]	GI50 [10]	GI50 [11]	GI50 [12]	GI50 [13]	GI50 [14]	GI50 [15]	GI50 [16]	GI50 [17]	GI50 [18]	GI50 [19]	GI50 [20]
O=c1c2ccccc2nc(-c2ccc(Br)cc2)n1NC1OC(CO)C(O)C(O)C1O (centres undefined)	> 100 µM (inactive)	> 100 µM (inactive)	31.6 µM (inactive)	59.8 µM (inactive)	34.1 µM (inactive)	> 100 µM (inactive)	> 100 µM (inactive)	> 100 µM (inactive)	> 100 µM (inactive)	> 100 µM (inactive)	> 100 µM (inactive)	> 100 µM (inactive)	> 100 µM (inactive)	> 100 µM (inactive)	> 100 µM (inactive)	> 100 µM (inactive)	80.5 µM (inactive)	> 100 µM (inactive)	> 100 µM (inactive)	
CCCCc1c2cnccc2c(CCCC)c2c1[nH]c1ccccc12	12.4 µM (inactive)	3.85 µM (inactive)	2.84 µM (inactive)	10.3 µM (inactive)		6.34 µM (inactive)	27.4 µM (inactive)	15.7 µM (inactive)	5.33 µM (inactive)	3.42 µM (inactive)	8.38 µM (inactive)	18 µM (inactive)	15.5 µM (inactive)	9.91 µM (inactive)	10 µM (inactive)	19.2 µM (inactive)	5.87 µM (inactive)	7.19 µM (inactive)	12.9 µM (inactive)	7.13 µM (inactive)
C=C1CCC2[C@@H](CCC3[C@]2(C)CCC[C@]3(C)C(=O)OC)C1CCO (some centres undefined)	13.6 µM (inactive)	19.8 µM (inactive)	4 µM (inactive)	13 µM (inactive)	4.02 µM (inactive)	13.9 µM (inactive)	29.3 µM (inactive)	14.4 µM (inactive)	9.35 µM (inactive)	13.4 µM (inactive)	12.5 µM (inactive)	11.9 µM (inactive)	15.8 µM (inactive)	4.37 µM (inactive)	18.3 µM (inactive)	18.6 µM (inactive)	7.46 µM (inactive)	14 µM (inactive)	13.1 µM (inactive)	
C=Cc1cnc([N+](=O)[O-])n1C		92 µM (inactive)	53.8 µM (inactive)	46.5 µM (inactive)	48.6 µM (inactive)	72.1 µM (inactive)	71 µM (inactive)	> 100 µM (inactive)	98.9 µM (inactive)	74.1 µM (inactive)	36.2 µM (inactive)	> 100 µM (inactive)	34.3 µM (inactive)	> 100 µM (inactive)	> 100 µM (inactive)	36.1 µM (inactive)		> 100 µM (inactive)	62.1 µM (inactive)	
O=C(O)C1(Cc2ccc3c(c2)CCC3)Cc2cc3c(cc2C1)CCC3	> 100 µM (inactive)		> 100 µM (inactive)	> 100 µM (inactive)	> 100 µM (inactive)	> 100 µM (inactive)	> 100 µM (inactive)	> 100 µM (inactive)		> 100 µM (inactive)	> 100 µM (inactive)		> 100 µM (inactive)	> 100 µM (inactive)	> 100 µM (inactive)	> 100 µM (inactive)	> 100 µM (inactive)	> 100 µM (inactive)	> 100 µM (inactive)	
CCOC(=O)c1cn2c(n1)sc1cc([N+](=O)[O-])ccc12	> 100 µM (inactive)	37 µM (inactive)	> 100 µM (inactive)	> 100 µM (inactive)		> 100 µM (inactive)	> 100 µM (inactive)	> 100 µM (inactive)	> 100 µM (inactive)	62.7 µM (inactive)	> 100 µM (inactive)	> 100 µM (inactive)	> 100 µM (inactive)	86.1 µM (inactive)	43.1 µM (inactive)	> 100 µM (inactive)	58.2 µM (inactive)	78.2 µM (inactive)	> 100 µM (inactive)	> 100 µM (inactive)
C=C1Oc2nc3ccccc3c(=O)n2C1(C)C	> 100 µM (inactive)	> 100 µM (inactive)	> 100 µM (inactive)	> 100 µM (inactive)	> 100 µM (inactive)	> 100 µM (inactive)	> 100 µM (inactive)	> 100 µM (inactive)	> 100 µM (inactive)	> 100 µM (inactive)	> 10 µM (inactive)	> 100 µM (inactive)	> 100 µM (inactive)	> 100 µM (inactive)	> 100 µM (inactive)	> 100 µM (inactive)		> 100 µM (inactive)	> 100 µM (inactive)	
CC(C)Oc1cccc(N2C(n3ccnc3)=Nc3ccncc3S2(=O)=O)c1	14.6 µM (inactive)	18.3 µM (inactive)	4.3 µM (inactive)	10.2 µM (inactive)		17.9 µM (inactive)	17.5 µM (inactive)	21.7 µM (inactive)	11.5 µM (inactive)	6.31 µM (inactive)	23.2 µM (inactive)	15.5 µM (inactive)	17.8 µM (inactive)	15.9 µM (inactive)	10.4 µM (inactive)	12.1 µM (inactive)	18.7 µM (inactive)	20.5 µM (inactive)	12.6 µM (inactive)	14.7 µM (inactive)
COc1cc(CO)c(CC(=O)NCCCc2ccccc2)cc1OC	> 100 µM (inactive)	> 100 µM (inactive)	> 100 µM (inactive)	> 100 µM (inactive)	38 µM (inactive)	> 100 µM (inactive)		> 100 µM (inactive)	> 100 µM (inactive)		54.6 µM (inactive)	> 100 µM (inactive)	> 100 µM (inactive)	> 100 µM (inactive)	> 100 µM (inactive)	> 100 µM (inactive)	> 100 µM (inactive)	> 100 µM (inactive)	> 100 µM (inactive)	
C=C1CC(C)(COc2ccc3c(C)c(C)c(=O)oc3c2C)OC1=O (centres undefined)	1.63 µM (inactive)	12.5 µM (inactive)	1.08 µM (active)	1.06 µM (active)	0.19 µM (active)	2.07 µM (inactive)	3.05 µM (inactive)	13.7 µM (inactive)	1.82 µM (inactive)	2.24 µM (inactive)	4.54 µM (inactive)	2.04 µM (inactive)	2.22 µM (inactive)	2.17 µM (inactive)	1.4 µM (inactive)	1.15 µM (inactive)	3.66 µM (inactive)	13.4 µM (inactive)	1.29 µM (inactive)	
CCOC(=O)CC[C@H](NC(=O)c1nc[nH]c1/N=N/N(C)C)C(=O)OCC	> 100 µM (inactive)	> 100 µM (inactive)	> 100 µM (inactive)	> 100 µM (inactive)	> 100 µM (inactive)	> 100 µM (inactive)	> 100 µM (inactive)	> 100 µM (inactive)	> 100 µM (inactive)	> 100 µM (inactive)	> 100 µM (inactive)	> 100 µM (inactive)	> 100 µM (inactive)	> 100 µM (inactive)	> 100 µM (inactive)			> 100 µM (inactive)	> 100 µM (inactive)	
